Experimental data taken from patent US20150031760A1, “PHARMACEUTICAL COMPOSITION FOR PREVENTING OR TREATING NERVOUS SYSTEM DISORDERS COMPRISING SULFURETIN OR PHARMACEUTICALLY ACCEPTABLE SALT THEREOF” (Research and Business Foundation SUNGKYUNKWAN UNIVERSITY, priority 2010, published 2015).
No end group written: not given here.

Tests used:
[1] = MTT (cell viability) test, induced cell death in SH-SY5Y cells; details: human
Procedure: (§1) The incubator was maintained at a temperature of 37° C., and a mixed gas of 95% air and 5% CO2 was continuously supplied thereto to provide suitable conditions for cell culture. The cells were cultured in a 6-well plate or a 96-well plate at each of densities of 1×10^6 and 2×10^4 cells/well 24 hours before the experiment. […] Sulfuretin was used in ethanol and used at a final concentration of 0.1% or less.
To measure cell viability, an MTT reduction assay was used. An MTT solution was added to each well of the 96-well plate (in which the cells have been cultured) to a final concentration of 0.5 mg/ml. The plate was incubated in an incubator for 2 hours, and the medium and the MIT solution were removed, after which DMSO was added thereto and stirred. When DMSO was completely dissolved, the UV absorbance at 540 nm was measured using a microplate reader (Molecular device, USA).
The measured absorbance was substituted into the following equation to calculate cell viability:
Cell viability (%)=[(O.D. of control−O.D. of test group)/O.D. of control]×100

[2] = MTT (cell viability) test, corticosterone-induced cell death in PC12 cells; type: cell-based; details: rat
Procedure: For the experiment shown in FIG. 3, PC12 cells were cultured in DMEM medium (Hyclone, Thermo, USA) containing 10% FBS, 5% horse serum and antibiotics (Gibco-BRL, USA). […] The concentration of corticosterone was determined to be 400 μM after evaluation of cell viability.

[3] = tested on: SH-SY5Y cells; experiment: LDH secretion (cytotoxicity) test; type: cell-based, human
Procedure: as §1
To measure LDH secretion (cytotoxicity), an LDH cytotoxicity assay kit was used. 50 μl of the medium was taken from each well of the 96-well plate (in which the cells have been cultured) and dispensed into each well of a fresh 96-well plate, and 50 μl of a reaction reagent was added to each well, after which the plate was shielded from light. The plate was incubated in an incubator for 30 minutes, and the UV absorbance at 490 nm was measured using a microplate reader (Molecular device, USA).
The measured absorbance was substituted into the following equation to calculate LDH secretion:
LDH secretion (%)=(LDH secretion O.D. in medium/total LDH secretion O.D.)×100

[4] = tested on: SH-SY5Y cells; experiment: Inhibition of ROS production (DCFH-DA fluorescence); type: cell-based, human; details: hydrogen peroxide alone, 30 minutes; control 102% or less
Procedure: as §1
In order to measure ROS elimination activity, cells were labeled with DCFH-DA fluorescence, and quantitative analysis was performed using a fluorescence meter.
Specifically, the 6-well plate in which the cells have been cultured was pretreated with sulfuretin for 2 hours, and then reacted with hydrogen peroxide for 30 minutes to induce ROS. Then, 10 μl of 10 mM DCFH-DA was added to the plate and allowed to react with the cells for 30 minutes. Herein, DCFH-DA in the incubator was covered with a foil such that it would not be exposed to light. The cells that reacted with the DCFH-DA fluorescent substance were detached using cold PBS and centrifuged at 400 g for 3 minutes. The centrifugation process was repeated twice to wash the fluorescent substance. The washed cells were briefly stirred with 1 ml of PBS, and 100 μl was dispensed into each of a fresh 96-well plate. Then, fluorescence was measured at an excitation wavelength of 488 nm and an emission wavelength of 515 nm using a fluorescence meter (Perkinelmer, USA).
The measured value was substituted into the following equation to calculate ROS production:
ROS production (%)=[(O.D. of control−O.D. of test group)/O.D. of control]×100

[5] = tested on: SH-SY5Y cells; experiment: Inhibition of intracellular [Ca2+] influx (Fura-2-AM fluorescence); type: cell-based, human; details: hydrogen peroxide alone, 30 minutes; normal control 281 nM or less
Procedure: as §1
In order to measure inhibitory effects on intracellular [Ca^2+] influx caused by oxidative stress, cells were labeled with Fura-2-AM fluorescence, and quantitative analysis was carried out using a fluorescence meter. Specifically, 10 μl of 5 μM Fura-2-AM was added to each well of the 6-well plate (in which the cells have been cultured) and then allowed to react for 30 minutes. Herein, Fura-2-AM in the incubator was covered with a silver foil such that it would not be exposed to light. After completion of the incubation, the plate was pretreated with sulfuretin for 30 minutes, and then reacted with hydrogen peroxide for 30 minutes to induce the intracellular influx of [Ca^2+]. Then, the cells that reacted with the Fura-2-AM fluorescent substance were washed twice with cold HEPES and detached with HEPES. Then, the cells were centrifuged at 400 g for 3 minutes. The supernatant was removed carefully, stirred weakly with 0.5 ml of HEPES buffer, and then 150 μl was dispensed into each well of a fresh 96-well plate. The fluorescence of the sample dispensed into the fresh 96-well plate was measured at an excitation wavelength of […] and an emission wavelength of 520 nm using a fluorescence meter (Perkinelmer, USA).
The measured value was substituted into the following equation to calculate intracellular [Ca^2+] nM: […]

[6] = tested on: SH-SY5Y cells; experiment: Inhibition of mitochondrial membrane potential (MMP) damage (rhodamine-123); type: cell-based, human; details: hydrogen peroxide alone, 30 minutes; normal control 99% or less
Procedure: as §1
In order to measure the inhibition of MMP damage, cells were labeled with rhodamine-123 fluorescence, and quantitative analysis was performed using a fluorescence meter. Specifically, the 6-well plate in which the cells have been cultured was pretreated with sulfuretin for 30 minutes and then reacted with hydrogen peroxide for 30 minutes to induce MMP damage. Then, 10 μl of 10 μM rhodamine-123 was added to each well of the plate and allowed to react for 30 minutes. Herein, rhodamine-123 in the incubator was covered with a silver foil such that it would not be exposed to light. The cells that reacted with the rhodamine-123 fluorescent substance were detached with cold PBS and centrifuged at 400 g for 3 minutes. The centrifugation process was repeated twice to wash the fluorescent substance. The washed cells were stirred briefly with 0.5 ml of PBS, and 100 μl was dispensed into each well of a fresh 96-well plate. The fluorescence of the cells was measured at an excitation wavelength of 480 nm and an emission wavelength of 530 nm using a fluorescence meter (Perkinelmer, USA).
The measured fluorescence was substituted into the following equation to calculate ΔΨm:
ΔΨm(%)=[(O.D. of control−O.D. of test group)/O.D. of control]×100

[7] = tested on: PARP; experiment: Western blot, PARP expression; type: cell-based, human; details: SH-SY5Y cells; hydrogen peroxide alone, 24 hours; normal control 100%
Procedure: as §1
(§2) In order to identify the effect of sulfuretin on the expression of proteins related to dementia, Alzheimer's disease, Parkinson's disease and strokes, a Western blot test was carried out.
(§3) After 24 hours, the supernatant of each well was collected and centrifuged at 400 g for 3 minutes, and the cells were washed with cold PBS and lysed with 100 μl of T-PER lysis buffer (Thermo, USA) for 30 minutes. The lysates were centrifuged at 10000 g at 4° C. for 15 minutes, and the supernatants were stored at […] until use as test samples. Proteins were quantitatively analyzed using a BCA assay kit (Thermo, USA) and separated within 8.5-12% SDS gel and then transferred to PVDF membranes. To examine the expression of the proteins, the development of fluorescence was analyzed by enhanced chemiluminescence (ECL). Specifically, the membrane was blocked with 5% skimmed non-fat milk for 1 hour and labeled with the primary antibodies, PARP, caspase-3, phospho-p38, phospho-JNK and β-actin at 4° C. overnight. Then, the membrane was washed three times with Tris-tween buffered saline (TTBS), and then labeled with horseradish peroxidase (HRP)-conjugated anti-rabbit and anti-mouse secondary antibodies at room temperature for 1 hour. Then, the membrane was washed five times with TTBS for 10 minutes. The washed film was developed by ECL using x-ray films, and concentrations were quantitatively analyzed using quantitative analysis program (Fujifilm, Japan).

[8] = tested on: caspase-3; experiment: Western blot, caspase-3 expression; type: cell-based, human; details: SH-SY5Y cells; hydrogen peroxide alone, 24 hours; normal control 100%
Procedure: as §1, §2, §3

[9] = tested on: phospho-p38; experiment: Western blot, phospho-p38 expression; type: cell-based, human; details: SH-SY5Y cells; hydrogen peroxide alone, 24 hours; normal control 100%
Procedure: as §1, §2, §3

[10] = tested on: phospho-JNK; experiment: Western blot, phospho-JNK expression; type: cell-based, human; details: SH-SY5Y cells; hydrogen peroxide alone, 24 hours; normal control 100%
Procedure: as §1, §2, §3

[11] = tested on: mice; experiment: Scopolamine-induced cognitive impairment, spontaneous alternation behavior Y-maze test; type: in vivo; details: scopolamine 0.5 mg/kg, i.p., compared with the control group (p<0.05)
Procedure: (§4) Male ICR mice (4-weeks-old, 18-20 g) were purchased from Koatech Co., Ltd. (Pyongtaek, Korea). Mice were housed 10 per cage, allowed access to water and food ad libitum, and maintained in constant temperature (23±1° C.) and humidity (55±5%) conditions under a 12 hour light/dark cycle (lights on 07:00 to 19:00 h). All experiments were conducted in accord with the NIH Guide for the Care and Use of Laboratory Animals and with the approval of the Institutional Animal Care and Use Committee of Sungkyunkwan University.
The spontaneous alternation behavior was measured by Y-maze which consists of a horizontal maze (30 cm long and 5 cm wide, with walls 12 cm high) with three arms (labeled A, B, and C). The maze floor and walls are constructed of dark grey, polyvinyl plastic. Mice were initially placed within one arm, and the number of alternations (i.e., consecutive entry sequences of ABC, CAB, or BCA but not BAB) and the number of arm entries were manually recorded for each mouse over an 8 minutes period. One hour before each test, the mice were given sulfuretin (0.25, 0.5, or 1 mg/kg, p.o.). After 30 minutes, memory impairment was induced by administering scopolamine (0.5 mg/kg, i.p.). […] The percentage alternation was calculated according to the following equation: Percentage alternation=[(Number of alternations)/(Total arm entries−2)]×100. […]

[12] = tested on: mice; experiment: Scopolamine-induced learning and memory deficits, step-through passive avoidance test; type: in vivo; details: scopolamine 0.5 mg/kg, i.p. (p<0.05)
Procedure: as §4
Assessment of the training or test trials of the passive avoidance test was carried out in identical illuminated and non-illuminated compartments (12×10×12 cm) containing 2-mm stainless steel rods spaced 0.5 cm apart. A 50 W lamp positioned 1 meter above both chambers illuminated the apparatuses. Briefly, the mice underwent two separate trials, a training trial and a test trial 24 hours later. For the training trial, mice were initially placed in the clear chamber. When they entered the dark chamber, the door closed and a 3-sec electrical foot shock (0.5 mA) was delivered through the stainless steel rods. One hour before each training trial, mice were given sulfretin (0.25, 0.5, or 1 mg/kg, p.o.). After 30 minutes, memory impairment was induced by administering scopolamine (0.5 mg/kg, i.p.). Twenty-four hours after the training trial, mice were placed in the illuminated chamber for the test trial. The time for the mouse to enter the dark compartment after the door opening was defined as latency for both training and test trials. Latencies were recorded for up to 300 s. To avoid a ceiling effect in unimpaired animals, sulfuretin alone was administered 1 hour before the training trial without scopolamine treatment. The intensity of electrical foot shock was set at 0.25 mA for 3 seconds. This lower intensity shock allowed for a behavioral window through which to detect any enhancing effect of sulfuretin.

[13] = tested on: SH-SY5Y cells; experiment: LDH assay, amyloid beta25-35-induced cytotoxicity; type: cell-based, human; details: 20 μM amyloid beta25-35 alone for 24 h, versus control cells (p<0.001)
[14] = tested on: Tau; experiment: Western blot, amyloid beta25-35-induced hyperphosphorylation of Tau; type: cell-based, human; details: SH-SY5Y cells; 20 μM amyloid beta25-35 alone, compared with control samples (p<0.05 and p<0.01)

Q: For NCCc1cc(O)c(O)cc1O [6-hydroxydopamine, reference compound], which viability at 200 µM [1] is on record?
A: ≥ 69%

Q: Which viability at 400 µM [2] does the source give for C[C@]12C[C@H](O)[C@H]3[C@@H](CCC4=CC(=O)CC[C@@]43C)[C@@H]1CC[C@@H]2C(=O)CO [corticosterone, Corticosterone, reference compound] here?
A: ≥ 55%

Q: For OO [hydrogen peroxide, reference compound], which viability at 400 µM ([1]; cell viability) is on record?
A: ≥ 55%

Q: And the LDH secretion ([3]; hydrogen peroxide alone, normal control 11% or less)?
A: ≥ 80%

Q: What about the ROS production [4] of the same compound?
A: ≥ 148%

Q: And the “intracellular [Ca2+] influx” value [5]?
A: ≥ 600 nM

Q: What about the “MMP (ΔΨm)” value [6] of the same compound?
A: ≤ 55%

Q: And the PARP expression [7]?
A: ≤ 38%

Q: And the caspase-3 expression [8]?
A: ≤ 40%

Q: And the phospho-p38 expression [9]?
A: ≥ 133%

Q: What about the phospho-JNK expression [10] of the same compound?
A: ≥ 173%

Q: What does the source list for CN1[C@@H]2C[C@@H](OC(=O)[C@H](CO)c3ccccc3)C[C@H]1[C@@H]1O[C@@H]12 [scopolamine, reference compound]?
A: spontaneous alternation behavior [11]: significantly decreased; step-through latency time (test trial) [12]: decreased

Q: Which results are given for “GSNKGAIIGLM [beta-amyloid, amyloid-beta 25-35 fragment, reference compound]”?
A: LDH secretion ([3]; beta-amyloid alone, normal control 12% or less): ≥ 15%; LDH activity (LDH release) [13]: increased significantly; phosphorylation of Tau proteins [14]: rapidly increased
